From PubChem BioAssay (NCI)
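Method: 48-hour compound exposure of cells in 96-well plates, five concentrations, linear interpolation of endpoints. Definition used: TGI = concentration required for complete inhibition of growth.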

Columns and labels:
Assay in all cases: DTP human tumour cell line panel, 48 h
[1] = tested on: NCI-H522 lung
[2] = tested on: 786-0 renal
[3] = tested on: SF-539 CNS
[4] = tested on: MALME-3M melanoma
[5] = tested on: NCI-H23 lung
[6] = tested on: K-562 leukemia
[7] = tested on: OVCAR-3 ovarian
[8] = tested on: OVCAR-8 ovarian
[9] = tested on: MDA-MB-435
[10] = tested on: TK-10 renal
[11] = tested on: UACC-62 melanoma
[12] = tested on: KM12 colon
[13] = tested on: RPMI-8226 leukemia
[14] = tested on: UO-31 renal
[15] = tested on: CCRF-CEM leukemia
[16] = tested on: UACC-257 melanoma
[17] = tested on: HS 578T breast

| SMILES | TGI [1] [µM] | TGI [2] [µM] | TGI [3] [µM] | TGI [4] [µM] | TGI [5] [µM] | TGI [6] [µM] | TGI [7] [µM] | TGI [8] [µM] | TGI [9] [µM] | TGI [10] [µM] | TGI [11] [µM] | TGI [12] [µM] | TGI [13] [µM] | TGI [14] [µM] | TGI [15] [µM] | TGI [16] [µM] | TGI [17] [µM] |
| --- | --- | --- | --- | --- | --- | --- | --- | --- | --- | --- | --- | --- | --- | --- | --- | --- | --- |
| CC(=O)c1cc(CC2Cc3cc4c(cc3C2=O)CCC4)cc2c1CCC2 (configuration not stated) | > 100 | > 100 | > 100 | > 100 | > 100 | > 100 | > 100 | > 100 | > 100 | > 100 | > 100 | > 100 | 69.2 | > 100 | > 100 | > 100 | > 100 |
| CC(C)C1CC(CO)(CNc2nc(N)nc(Cl)c2/C=N\O)C1 (configuration not stated) | 22.4 | 46.4 | 49.3 | 16 | 24.3 | > 100 | 36.9 | 50.3 | 28.9 | 61.1 | 25.4 | 18.3 | 31.9 | 36.3 | > 79.2 | 11.8 | 53.8 |
| CC1(C)CCCC2CC2CCC(C)(C)C1=O (configuration not stated) | > 100 | 86.6 | > 100 | > 100 | > 100 | 40.1 | 82.7 | > 100 | > 100 | > 100 | > 100 | > 100 | 68.1 | > 100 | 38.4 | > 100 | > 100 |
| O=C(NC1CCN(Cc2ccccc2)CC1)c1cccc(I)c1 | 32.9 | 57.8 | 51.6 | 32.5 | 63.3 | > 100 | > 100 | > 100 | 34.9 | 65.2 | 40.1 | 33.6 | 69.2 | 31.6 | > 100 | 33.2 | 83 |
| O=C(O)CCNc1ncc2c(n1)-c1ccccc1OC2 | > 100 | > 100 | > 100 | > 100 | > 100 | > 100 | > 100 | > 100 | > 100 | > 100 | > 100 | > 100 | > 100 | > 100 | > 100 | > 100 | > 100 |
| N#Cc1sc2c(c1OC(=O)c1ccc(Cl)cc1)c(=O)n(-c1ccccc1)c(=S)n2-c1ccccc1 | 5.29 | 63.6 | 44 | 54.4 | 65.8 | > 100 | 64.2 | 67.1 | 52.5 | 88.7 | 35.6 | 32.5 | 45.3 |  | 31.2 | > 100 | 56.2 |
| COC(=O)CNC(=O)CNC(=O)CSc1nnc(COc2ccc(Cl)cc2)n1-c1ccccc1 | 31.8 | > 100 | > 100 | 35.3 | > 100 | > 100 | 37.6 | > 100 | 34.5 | > 100 | 33.5 | 47.3 | 78.1 | 48.6 | 57.4 | 40.5 | 78.3 |
| CCOC(CN(C)C(=O)Nc1ccc(Cl)c(Cl)c1)OCC | > 10 | > 10 | > 10 | > 10 | > 10 | > 10 | > 10 | > 10 | > 10 | > 10 | > 10 | > 10 | > 10 | > 10 | > 10 | > 10 | > 10 |
| CN1CN(c2ccccc2)C2(CCN(C3Nc4ccccc4O3)CC2)C1=O (configuration not stated) | 39.2 | 49.6 | 28.9 | 38 | 54.9 | > 100 | 31.7 | 82.1 | 42.1 | 46.3 | 31 | 51.5 | 58 | 69.8 | 57.6 | 33.7 | 37.7 |
| O=C1C=CC(=O)c2c(O)c(NCCO)c(Cl)c(O)c21 | > 10 | > 10 | 5.73 | 2.71 | 5.59 | 8.23 | 7.41 | > 10 | 4.23 | > 10 | 3.47 | > 10 | > 10 | > 10 | > 10 | 2.78 | > 10 |
| C=C[C@]1(C)CC(=O)C(C(C)C=O)[C@]12C(=O)Oc1cccc(C)c1C2=O (some centres not stated) | 18.2 | 30 | 31 | 34.5 | 33.2 | 53.2 | 29.6 | 31.5 | 29.3 | 28.2 | 31 | 28.8 | > 100 | 28.9 | 17.6 | 33.2 | 42.7 |
| O=C(CCc1ccc(O)c(O)c1)NCCc1ccccc1 | 43.4 | > 100 | > 89.9 | > 100 | > 100 | 49.6 | > 100 | > 100 | 29.3 | > 100 | > 65.2 | > 100 | > 76.1 | > 74.5 | > 90.8 | > 100 | > 100 |
| CCCCCCCCCC(=O)NCCc1c[nH]c2ccc(OC)cc12 | 32.1 | 38.7 | 46 | 34.3 | 31.6 | > 100 | 30.3 | 32 | 60.3 | 35.1 | 30.4 | > 100 | 67 | 26.1 | 37.5 | 41.8 | 42.8 |
| O=C(NNC(=S)Nc1ccc(Cl)cc1)C12CC3CC(CC(C3)C1)C2 | 20.2 | > 58 | 14.3 | 47.4 | 54.7 | > 37.9 | 10.6 | > 44.6 | 37.8 | 70.8 | 21.8 | > 51.6 | 2.28 | 19 | 11.6 | > 57.3 | 83 |
